Test results taken from ChEMBL document CHEMBL1201862, “PubChem BioAssay data set” (2004).
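All cell lines were grown in 96-well plates and treated with compound for 48 hours. Here, GI50 denotes the concentration required for 50% inhibition of growth.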 The source made the active and inactive calls. Rule as the data show it: active = GI50 up to about 1.1 µM and inactive = higher.

How the values were obtained:
Assay in all cases: growth of human tumour cells (NCI), 48 h
XF498 = tested on: XF498
KM-20L2 = tested on: KM-20L2
DLD-1 = tested on: DLD-1
M19-MEL = tested on: M19-MEL
DMS-114 = tested on: DMS-114
SNB-78 = tested on: SNB-78
DMS-273 = tested on: DMS-273
RXF 631 = tested on: RXF 631
HOP-18 = tested on: HOP-18

Compound	GI50 (XF498)	GI50 (KM-20L2)	GI50 (DLD-1)	GI50 (M19-MEL)	GI50 (DMS-114)	GI50 (SNB-78)	GI50 (DMS-273)	GI50 (RXF 631)	GI50 (HOP-18)
COc1ccc(/C=C2\Cc3ccccc3C2=O)cc1OC	> 100 µM (inactive)	> 100 µM (inactive)	> 100 µM (inactive)	> 100 µM (inactive)	48.6 µM (inactive)	> 100 µM (inactive)			
COc1ccc(-c2cc(O)c3cc4c(cc3n2)OCO4)cc1	> 100 µM (inactive)	> 100 µM (inactive)	> 100 µM (inactive)	> 100 µM (inactive)	> 100 µM (inactive)		> 100 µM (inactive)		
CCOC(=O)c1c(C)c(C)n2c1NC(=O)C2	0.073 µM (active)	> 100 µM (inactive)	> 100 µM (inactive)	> 100 µM (inactive)	> 100 µM (inactive)		> 100 µM (inactive)	> 100 µM (inactive)	> 100 µM (inactive)
C=C1C(=O)O[C@H]2C[C@@H](C)[C@@H]3CC(=O)OC[C@@]3(C)CC12 (stereo not given in full)		18.5 µM (inactive)	23.4 µM (inactive)	34.5 µM (inactive)			28.6 µM (inactive)		36.5 µM (inactive)
Nc1nc(N)c(CCCCc2ccccc2)c(C=O)n1		30.6 µM (inactive)	20.1 µM (inactive)	14.8 µM (inactive)	15.9 µM (inactive)	22.9 µM (inactive)	17.2 µM (inactive)	43.5 µM (inactive)	40.8 µM (inactive)
COC(=O)C(Cc1nc2ccccc2nc1O)/C(=N\NC(C)(C)C)C(=O)Nc1c(C)cc(Br)cc1C (stereo not given)			22.2 µM (inactive)	45.1 µM (inactive)	24.7 µM (inactive)	22.6 µM (inactive)			
CCOc1ccc(NC(=O)CC2Sc3ccccc3NC2=O)cc1 (stereo not given)		> 100 µM (inactive)	88.5 µM (inactive)	> 100 µM (inactive)	> 100 µM (inactive)	57.1 µM (inactive)	33.4 µM (inactive)		20.5 µM (inactive)
CC(C)=CCC/C(C)=C/CC/C(C)=C/CCC1(C)CCC([C@H](C)C(=O)O)OO1.CC1=C(CC/C(C)=C/CCC2(C)CCC([C@H](C)C(=O)O)OO2)C(C)(C)CCC1 (stereo not given in full)		> 100 µM (inactive)	> 100 µM (inactive)	> 100 µM (inactive)	> 100 µM (inactive)	> 100 µM (inactive)	> 100 µM (inactive)		
CC(=O)Oc1ccc(CO)cc1OC(C)=O	92.9 µM (inactive)	> 100 µM (inactive)	> 100 µM (inactive)	> 100 µM (inactive)	40.3 µM (inactive)	> 100 µM (inactive)	> 100 µM (inactive)	63.2 µM (inactive)	> 100 µM (inactive)
CCC1=CCN(c2cc(C)ccn2)OC1c1ccccc1 (stereo not given)	22.9 µM (inactive)	39.2 µM (inactive)	34 µM (inactive)	34.4 µM (inactive)	56.2 µM (inactive)	43.9 µM (inactive)	43.6 µM (inactive)	25.4 µM (inactive)	> 100 µM (inactive)
CC(N)Cc1ccc(F)cc1 (stereo not given)		> 100 µM (inactive)	> 100 µM (inactive)		> 100 µM (inactive)	> 100 µM (inactive)	> 100 µM (inactive)	> 100 µM (inactive)	> 100 µM (inactive)
O=C1NCCS(=O)(=O)N[C@@H](CC2=CC=CCC2)C(=O)N2CCCC12 (stereo not given in full)	> 100 µM (inactive)	> 100 µM (inactive)	> 100 µM (inactive)	> 100 µM (inactive)	> 100 µM (inactive)	> 100 µM (inactive)	> 100 µM (inactive)	> 100 µM (inactive)	> 100 µM (inactive)
CC1(C2CCC3(C)C(C2)C3Sc2ccccc2)OCCO1 (stereo not given)	17.1 µM (inactive)		29 µM (inactive)	19.8 µM (inactive)	21.8 µM (inactive)	40 µM (inactive)	19.9 µM (inactive)		
CSc1nc(NC2OC(COC(C)=O)C(OC(C)=O)C(OC(C)=O)C2OC(C)=O)c2c(n1)OCC2=O (stereo not given)		> 100 µM (inactive)	> 100 µM (inactive)	> 100 µM (inactive)	> 100 µM (inactive)	> 100 µM (inactive)		> 100 µM (inactive)	> 100 µM (inactive)
Cc1ccc(C2=Nc3ccccc3NC(=O)C2)cc1	35.9 µM (inactive)	> 100 µM (inactive)	> 100 µM (inactive)	> 100 µM (inactive)	91.2 µM (inactive)	72.6 µM (inactive)	> 100 µM (inactive)		> 100 µM (inactive)
N#CC1(Cc2ccccc2)CCCCN1C(=O)c1ccccc1 (stereo not given)	> 100 µM (inactive)	> 100 µM (inactive)	> 100 µM (inactive)	> 100 µM (inactive)	> 100 µM (inactive)	> 100 µM (inactive)	> 100 µM (inactive)	> 100 µM (inactive)	> 100 µM (inactive)
CC1OC(n2cc(F)c(=O)[nH]c2=O)C=CC1=O (stereo not given)		18.4 µM (inactive)	18.1 µM (inactive)	19.7 µM (inactive)	18 µM (inactive)	18.7 µM (inactive)	18.6 µM (inactive)	53.8 µM (inactive)	18.3 µM (inactive)
OC1(C23CC4CC(CC(C4)C2)C3)CSCC1(O)C12CC3CC(CC(C3)C1)C2 (stereo not given)	> 100 µM (inactive)		> 100 µM (inactive)	64.6 µM (inactive)	> 100 µM (inactive)	> 100 µM (inactive)	> 100 µM (inactive)	> 100 µM (inactive)	
NC1=NC(c2ccccc2)CC(c2cc(Cl)ccc2O)=N1 (stereo not given)	19.6 µM (inactive)	17.4 µM (inactive)	13.2 µM (inactive)	14.5 µM (inactive)	12.7 µM (inactive)	19.5 µM (inactive)	13 µM (inactive)		17.7 µM (inactive)
CSC1NC=Nc2c1sc(=S)n2-c1ccccc1 (stereo not given)	> 100 µM (inactive)	> 100 µM (inactive)	> 100 µM (inactive)	> 100 µM (inactive)	> 100 µM (inactive)	43.5 µM (inactive)	> 100 µM (inactive)		> 100 µM (inactive)
CO/N=C/c1cc(OC)c(OC)c(OC)c1	> 100 µM (inactive)	> 100 µM (inactive)	> 100 µM (inactive)	> 100 µM (inactive)	> 100 µM (inactive)	> 100 µM (inactive)	> 100 µM (inactive)	> 100 µM (inactive)	> 100 µM (inactive)
CCOC(=O)[C@H](Cc1ccccc1)NC(=O)c1nc[nH]c1[N+](=O)[O-]			> 100 µM (inactive)	> 100 µM (inactive)	> 100 µM (inactive)		> 100 µM (inactive)		
C=CC1[C@H]2COC(C)(C)O[C@@H]2CC(=O)C1(C)C (stereo not given in full)	> 100 µM (inactive)	> 100 µM (inactive)	> 100 µM (inactive)	> 100 µM (inactive)	> 100 µM (inactive)	> 100 µM (inactive)	> 100 µM (inactive)		> 100 µM (inactive)
CC1CC2OC(=O)CC2C[C@@H]1O[Si](C)(C)C(C)(C)C (stereo not given in full)		46.3 µM (inactive)	83.4 µM (inactive)	42.8 µM (inactive)	28 µM (inactive)	> 100 µM (inactive)	33.7 µM (inactive)	44.5 µM (inactive)	> 100 µM (inactive)
CC[C@@]1(O)C(=O)OCc2c1cc1n(c2=O)Cc2cc3cc(OC)ccc3nc2-1		0.0604 µM (active)		0.0537 µM (active)	0.01 µM (active)		0.01 µM (active)		
COc1cc([C@@H]2c3cc4c(cc3C[C@H]3COC(=O)[C@@H]32)OCO4)cc(OC)c1OC [DESOXYPODOPHYLLOTOXIN]	0.00859 µM (active)	0.00703 µM (active)	0.00843 µM (active)	0.00986 µM (active)	0.00698 µM (active)	0.00875 µM (active)	0.00728 µM (active)		33.6 µM (inactive)
C[C@@H]1C[C@H]2[C@@H]3CCC4=CC(=O)C=C[C@]4(C)[C@@]3(F)[C@@H](O)C[C@]2(C)[C@@]1(O)C(=O)CO [DEXAMETHASONE]		> 100 µM (inactive)	> 100 µM (inactive)	> 100 µM (inactive)	95.9 µM (inactive)				
